From patent US9688625B2, “Amorphous form of a thiocolchicine derivative” (priority 2014, dated 2017)

Key:
Format in all cases: physicochemical
[1] = Chemical stability on storage, analyses by HPLC; conditions: for variation in the chemical composition: after one month at 40±2° C./75±5% relative humidity; for time for which chemically stable (none impurity departed from its initial value): HPLC
Method: The analyses were performed by HPLC.

[2] = Solubility (comparison of solid forms); conditions: compared with other crystalline forms
[3] = Physical stability on storage (features of FIG. 1-4 maintained); conditions: 40±2° C./75±5 relative humidity
Method: The amorphous form of compound (I) has also been found physically stable at 25±2° C./60±5% relative humidity for at least three years and at 40±2° C./75±5 relative humidity for at least 6 months, as it maintained the characteristics features reported in FIG. 1-4.

| SMILES | variation in the chemical composition [1] [%] | time for which chemically stable (none impurity departed from its initial value) ([1]; 25±2° C./60±5% relative humidity) | time for which chemically stable (none impurity departed from its initial value) ([1]; 40±2° C./75±5% relative humidity) | solubility in water [2] | time for which physically stable (maintained features of FIG. 1-4) [3] |
| --- | --- | --- | --- | --- | --- |
| COc1cc2c(c(OC)c1OC)-c1ccc(SC)c(=O)cc1[C@@H](NC(=O)CCNC(=O)N[C@H]1CCc3cc(OC)c(OC)c(OC)c3-c3ccc(SC)c(=O)cc31)CC2 (single isomer, unassigned) [crystalline IDN 5404 obtained in Example 2] [reference compound] | 7 |  |  |  |  |
| COc1cc2c(c(OC)c1OC)-c1ccc(SC)c(=O)cc1[C@@H](NC(=O)CCNC(=O)N[C@H]1CCc3cc(OC)c(OC)c(OC)c3-c3ccc(SC)c(=O)cc31)CC2 (single isomer, unassigned) [crystalline IDN 5404 obtained in Example 3] [reference compound] | 4.1 |  |  |  |  |
| COc1cc2c(c(OC)c1OC)-c1ccc(SC)c(=O)cc1[C@@H](NC(=O)CCNC(=O)N[C@H]1CCc3cc(OC)c(OC)c(OC)c3-c3ccc(SC)c(=O)cc31)CC2 [amorphous form of compound (I), IDN 5404] |  | at least three | at least 6 moths | more soluble in water than other crystalline forms | at least 6 months |
